Results reported in patent US20110274763A1, “Slow releasing microcapsules and microspheres containing an active substance” (priority 2009, published 2011).
Read-outs that look alike come from different tables or passages of the source.

How the values were obtained:
[1] = IPBC release from painted surfaces immersed in water (14C, liquid scintillation); assay type: physicochemical; settings: water-based paint; 0.1% IPBC in wet paint; microspheres with 10% and 25% loading; plates in 250 ml water
Method: Three different 10 g paint samples were prepared. […] A specific fraction of the IPBC was ^14C-labelled material. Wet paint contained in total 0.1% IPBC. Stirring the paint assured homogeneous dispersion of the added substance. […] The containers were placed on a mechanical shaker. […] The release of free IPBC is about three times faster than that from microspheres.

[2] = plates in 2000 ml water, 0.4% medetomidine in wet paint
Method: Four different 30 g paint samples were prepared. Two of the samples were based on biocide-free and water-based standard white exterior wall paint, while the two other samples were based on biocide-free and organic solvent-based standard white exterior wall paint. Medetomidine was added to each sample, either in free form or the form of microspheres. ^14C-labelled material was 2.3% of all medetomidine. Wet paint contained in total 0.4% medetomidine. Stirring the paint with an electrical mixer assured homogeneous dispersion of the added substance. For the release studies, approximately 1 g (dry state) of the paint systems was applied on poly(propylene) plates using a paint applicator. After drying and weighing, each plate was vertically positioned in a closed container containing 2000 ml water that covered the plate. The containers were placed on a mechanical shaker. At various times 1000 μl water was pipetted out from each system and transferred to 20 ml tubes.

[3] = test system: barnacles and other fouling organisms; settings: 0.1% by weight medetomidine or equivalent in marine paint; six and ten months of submersion in the sea, Swedish west coast
Method: PMMA test panels 1 dm^2 was painted by brush with three different biocide free commercially available marine paints. 3 ml of paint were used for each layer and there were two layers applied on each panel. These panels were used as references. To the same paints in different cans were added 0.1% by weight of medetomidine or an equivalent amount of medetomidine encapsulated in microspheres. The paint mixtures were applied to the same kind of test panels as the reference paints. All panels were made in triplicates and mounted randomly on a frame for submersion into the sea on the Swedish west coast (Tjärnö Marine Biological Laboratory). After six months and ten months (June 2009 to December 2009 and in April 2010) of submersion they were inspected.

release of free medetomidine compared with that from microspheres ([2]; solvent-based paint)	release of free medetomidine compared with that from microspheres ([2]; water-based paint)	Structure (SMILES)	release of free IPBC compared with that from microspheres [1]	barnacle / tubeworm attachment on painted panels [3]
–	–	CCCCNC(=O)OCC#CI [free IPBC, 3-iodo-2-propynyl butylcarbamate]	about three	–
ten	about two	Cc1cccc(C(C)c2cnc[nH]2)c1C (stereo not shown) [medetomidine, 4-[1-(2,3-dimethylphenyl)ethyl]-3H-imidazole]	–	no barnacles or tubeworms attached
